Test [1] in a line: Inhibition of RANTES-induced migration of human embryonic kidney (CCR1/HEK) cell transfectants.
The target of test [2] is T1, C-C chemokine receptor type 1 (Homo sapiens, UniProt P32246).
T1 sequence (P32246 whole entry): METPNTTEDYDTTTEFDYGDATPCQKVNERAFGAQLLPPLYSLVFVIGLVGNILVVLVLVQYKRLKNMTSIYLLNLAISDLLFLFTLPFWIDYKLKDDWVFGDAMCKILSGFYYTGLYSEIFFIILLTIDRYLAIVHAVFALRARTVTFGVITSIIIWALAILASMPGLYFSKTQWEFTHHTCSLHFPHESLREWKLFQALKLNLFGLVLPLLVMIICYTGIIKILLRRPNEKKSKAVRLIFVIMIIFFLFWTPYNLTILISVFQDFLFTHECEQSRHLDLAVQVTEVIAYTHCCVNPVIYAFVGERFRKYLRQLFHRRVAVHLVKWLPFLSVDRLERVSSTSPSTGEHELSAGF
Description: ChEBML_40342. From the text:
Inhibition of RANTES-induced migration of human embryonic kidney (CCR1/HEK) cell transfectants

For `CC(C)CCCC(C)[C@H]1CC[C@H]2[C@@H]3CCC4C[C@@H](CCC=C(c5cc(Cl)c(O)c(C(=O)O)c5)c5cc(Cl)c(O)c(C(=O)O)c5)CC[C@]4(C)[C@H]3CC[C@]12C` (some centres undefined), in test [1], the IC50 (commonly the concentration that gives 50% inhibition) is 0.26 µM.
In turn, `[C][C]([C])[C][C][C][C]([C])[C@H]1[C][C][C@H]2[C@@H]3[C][C][C]4[C][C@@H]([C][C][C]=C(c5cc(Cl)c(O[C]c6cccc(B([O])O)c6)c(C(=O)O)c5)c5cc(Cl)c(O[C]c6cccc(B([O])O)c6)c(C(=O)O)c5)[C][C][C@]4([C])[C@H]3[C][C][C@]12[C]` [Cosalane derivative] returned an IC50 in test [2] of 4 µM.
With `[C][C]([C])[C][C][C][C]([C])[C@H]1[C][C][C@H]2[C@@H]3[C][C][C]4[C][C@@H]([C][C][C]=C(c5cc(Cl)c(O[C]c6ccc(-c7cccc(C([O])=O)c7)cc6)c(C(=O)O)c5)c5cc(Cl)c(O[C]c6ccc(-c7cccc(C([O])=O)c7)cc6)c(C(=O)O)c5)[C][C][C@]4([C])[C@H]3[C][C][C@]12[C]` [5-{1-{3-carboxylato-4-[4-(3-carboxyphenyl)benzyloxy]-5-chlorophenyl}-4-[1-(1,5-dimethylhexyl)-9a,11a-dimethylperhydrocyclopenta[a]phenanthren-7-yl]-1-butenyl}-2-[4-(3-carboxyphenyl)benzyloxy]-3-chlorobenzoate], in test [2], the IC50 stood at 9.1 µM.
`CC(C)CCCC(C)[C@H]1CC[C@H]2[C@@H]3CCC4C[C@@H](CCC=C(c5cc(Cl)c(O)c(C(=O)NCC(=O)O)c5)c5cc(Cl)c(O)c(C(=O)NCC(=O)O)c5)CC[C@]4(C)[C@H]3CC[C@]12C` (some centres undefined) showed an IC50 in test [1] of 10 µM.

The values above are taken from BindingDB's records for doi:10.1016/s0960-894x(00)00601-6 (National Cancer Istitute-Frederick Cancer Research and …, 2001).
